The values that follow come from paper PMC7450057, “Enhancing intracellular accumulation and target engagement of PROTACs with reversible covalent chemistry” (Nature Communications, 2020).

The nature of series [1]: Permeability by lipid-PAMPA method (Pharmaron). It counts as in vitro ADME. As to conditions: for recovery at 16 h, 10 μM: PAMPA. How it is done:
The permeability of compounds was measured using Lipid-PAMPA method by Pharmaron. Preparation of stock solutions: testosterone and methotrexate were used as control compounds in this assay. The stock solutions of positive controls were prepared in DMSO or acetonitrile at the concentration of 10 mM. Prepare a stock solution of compounds in DMSO at the concentration of 10 mM, and further dilute with PBS (pH 7.4). […]
Assay procedures: prepare a 1.8% solution (w/v) of lecithin in dodecane, and sonicate the mixture to ensure a complete dissolution. Carefully pipette 5 μL of the lecithin/dodecane mixture into each acceptor plate well (top compartment), avoiding pipette tip contact with the membrane. Immediately after the application of the artificial membrane (within 10 min), add 300 μL of PBS (pH 7.4) solution to each well of the acceptor plate. Add 300 μL of drug-containing solutions to each well of the donor plate (bottom compartment) in triplicate. Slowly and carefully place the acceptor plate into the donor plate, making sure the underside of the membrane is in contact with the drug-containing solutions in all wells. Replace the plate lid and incubate at 25 °C, 60 rpm for 16 h. After incubation, aliquots of 50 μL from each well of acceptor and donor plate are transferred into a 96-well plate. Add 450 μL of methanol (containing IS: 100 nM Alprazolam, 200 nM Caffeine, 100 nM Tolbutamide) into each well. Cover with plate lid. Vortex at 750 rpm for 100 s. Samples were centrifuged at 3220 × g for 20 min. Determine the compound concentrations by LC/MS/MS. The effective permeability (Pe), in units of centimeter per second, can be calculated using the following equation: LogPe=LogC×−Ln1−drugacceptor/drugequilibrium
(In general: The PAMPA barrier holds no transporters, so it reflects passive diffusion.)

Another series concerns Mino cells. As to the kind of experiment: AlamarBlue cell viability assay, Mino. It counts as cell-based. To be noted: for Mino Cell Viability%: Figure 2f, 5 replicates. Background: Alamar Blue is a resazurin reagent that responds to reducing activity.
Another series concerns the target T1, BTK-NanoLuc fusion (Homo sapiens, UniProt Q06187).
T1 construct: host or cells: HEK 293T/17
As to the kind of experiment: NanoBRET BTK in-cell target engagement assay. Format: cell-based. To be noted: for NanoBRET(%): Figure 3d, triplicates. How it is done:
The target engagement assay for BTK or CRBN was from Promega (BTK kit, Cat. No. N2500; CRBN kit, Cat. No. CS1810C136) and was performed according to the manufacture’s instruction with some modifications. Briefly, HEK 293/T17 cells (ATCC) were transiently transfected with BTK-NanoLuc® fusion vector or NanoLuc®-CRBN fusion vector (Promega) in 0.125 M CaCl2 and 1x HBS. Forty-eight hours after transfection, the cells were resuspended in Opti-MEM medium (Life Technologies, Cat. No. 11058021) at the density of 2 × 10^5 cells per mL and were plated into 96-well plates (Corning, Cat. No. CLS3600). Cells were incubated with 1.0 µM (BTK) or 0.5 µM (CRBN) NanoBRET™ Tracer and serially diluted unlabeled BTK PROTAC compounds (from 10 to 0.0032 µM, 5-fold dilution) for 2 h at 37 °С with 5% CO2 in an incubator. After 2 h incubation, the 3X Nano-Glo® Substrate with NanoLuc® extracellular inhibitor were added to cells and developed for 3 min at room temperature. BRET signals were collected using a BioTek SYNERGY H1 microplate reader equipped with a 450/80-nm BP filter for donor emission and a 610-nm LP filter for acceptor emission. BRET Ratio was calculated with the equation: [(Acceptor sample/Donor sample)–(Acceptor no tracer control/Donor no tracer control)] × 1000. The IC50 of the compound against its BTK or CRBN tracer was calculated using GraphPad Prism software.

Another series has as its system MOLM-14 cells. As to the kind of experiment: AlamarBlue cell viability assay, MOLM-14. As to conditions: for MOLM-14 Cell Viability%: Figure 2f, 5 replicates.
For series [2], the target named is BTK (Homo sapiens, UniProt Q06187). As to the kind of experiment: BTK degradation in MOLM-14 cells (western blot). Format: cell-based. To be noted: Figure 2b, duplicates. Also noted: endogenous in cells; host or cells: MOLM-14.
In series [3] the target is BTK (Mus musculus, UniProt P35991). As to the kind of experiment: BTK degradation in mouse B-cell lymphoma cell line derived from Eu-Myc mice. It counts as cell-based. Also noted: endogenous in cells; host or cells: B cell lymphoma cell line derived from Eu-Myc mice. To be noted: Supplementary Figure 10, replicates, DMSO about 100. As to the method: MOLM-14 cell line was obtained from Dr. Conneely at Baylor College of Medicine, and the Mino cells were purchased from the American Type Culture Collection (ATCC, Cat. No. CRL-3000). Both cell lines were cultured in RPMI 1640 medium (Thermo Fisher Scientific, Cat. No. MT10040CV) supplemented with 10% fetal bovine serum (GE Healthcare, Cat. No. SH30071.03) and 1% Pen/Strep (Thermo Fisher Scientific, Cat. No. 15140163). The wild-type and C481S BTK XLA cell lines were gifts from Dr. Woyach at The Ohio State University and were cultured in RPMI 1640 medium with 15% fetal bovine serum, 1% Pen/Strep, and 1.0 µg/ml puromycin (Thermo Fisher Scientific, Cat. No. A1113803). HEK 293T/17 cells were purchased from ATCC (Cat. No. CRL-11268) were maintained in DMEM (Thermo Fisher Scientific, Cat. No. MT10013CV) with 10% fetal bovine serum and 1% Pen-Strep. The B cell lymphoma cell line derived from Eu-Myc mice was a gift from Dr. Yulin Li at Houston Methodist Research Institute and cultured in RPMI 1640 medium supplemented with 15% (v/v) fetal bovine serum (FBS), 100 U/mL penicillin, 100 μg/mL streptomycin, and 0.05 mM beta-mercaptoethanol and puromycin (1 μg/mL). Cells were grown at 37 °C with 5% CO2.
The collected cells and spleen tissues were lysed in RIPA lysis buffer (50 mM Tris-HCl, pH 7.4, 150 mM NaCl, 1% NP-40, 0.5% sodium deoxycholate, 0.1% SDS) supplemented with Halt™ Protease and Phosphatase Inhibitor Cocktail (Thermo Fisher Scientific, Cat. No. PI78440) immediately before use. Lysates were centrifuged at 15,000 × g for 10 min at 4 °C and the supernatant was quantified for total protein concentration using the Pierce BCA Protein Assay (Thermo Fisher Scientific, Cat. No. 23225). Thirty micrograms of protein were loaded onto sodium dodecyl sulfate−polyacrylamide gel for electrophoresis (Bio-Rad) and transferred onto PVDF membranes (Millipore, Cat. No. IPVH00010). […] Imaging was performed using the ECL Prime chemiluminescent western blot detection reagents (GE Healthcare, Cat. No. RPN2232) by visualization of the blots to X-Ray film or with an Imager (Kindle Biosciences, Cat. No. D1001). All western blots were subsequently processed and quantified with Imager software. Protein level was normalized to β-actin or GAPDH loading controls.

pIC50: −log10 of the molar value. Values joined by “and” are separate entries in the source; they are usually repeats but may differ in a detail not shown here. Equal entries are not always repeated. Where two headings read alike, the source gives them in different places.

T1 sequence (Q06187 whole entry, the tested form may be a part): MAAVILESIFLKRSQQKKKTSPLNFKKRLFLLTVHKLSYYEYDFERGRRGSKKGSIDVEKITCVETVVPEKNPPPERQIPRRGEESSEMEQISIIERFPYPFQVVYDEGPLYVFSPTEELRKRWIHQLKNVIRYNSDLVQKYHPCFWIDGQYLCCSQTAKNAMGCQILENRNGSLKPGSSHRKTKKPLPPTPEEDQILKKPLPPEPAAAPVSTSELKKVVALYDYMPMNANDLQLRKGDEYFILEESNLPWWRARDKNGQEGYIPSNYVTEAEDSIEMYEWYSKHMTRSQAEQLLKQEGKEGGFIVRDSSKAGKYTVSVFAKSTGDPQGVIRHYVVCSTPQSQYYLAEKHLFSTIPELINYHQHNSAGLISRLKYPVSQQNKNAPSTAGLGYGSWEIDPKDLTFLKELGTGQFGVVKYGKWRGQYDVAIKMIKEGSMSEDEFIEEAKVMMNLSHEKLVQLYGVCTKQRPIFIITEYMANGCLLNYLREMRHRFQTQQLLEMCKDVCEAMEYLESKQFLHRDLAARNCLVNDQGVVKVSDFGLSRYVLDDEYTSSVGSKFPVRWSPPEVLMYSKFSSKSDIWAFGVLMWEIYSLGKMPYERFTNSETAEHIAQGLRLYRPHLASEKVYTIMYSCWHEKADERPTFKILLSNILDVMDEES
Chain of BTK (Homo sapiens, UniProt Q06187) (Q06187 whole entry): as the sequence (Q06187 whole entry, the tested form may be a part) above
Chain of BTK (Mus musculus, UniProt P35991) (P35991 whole entry): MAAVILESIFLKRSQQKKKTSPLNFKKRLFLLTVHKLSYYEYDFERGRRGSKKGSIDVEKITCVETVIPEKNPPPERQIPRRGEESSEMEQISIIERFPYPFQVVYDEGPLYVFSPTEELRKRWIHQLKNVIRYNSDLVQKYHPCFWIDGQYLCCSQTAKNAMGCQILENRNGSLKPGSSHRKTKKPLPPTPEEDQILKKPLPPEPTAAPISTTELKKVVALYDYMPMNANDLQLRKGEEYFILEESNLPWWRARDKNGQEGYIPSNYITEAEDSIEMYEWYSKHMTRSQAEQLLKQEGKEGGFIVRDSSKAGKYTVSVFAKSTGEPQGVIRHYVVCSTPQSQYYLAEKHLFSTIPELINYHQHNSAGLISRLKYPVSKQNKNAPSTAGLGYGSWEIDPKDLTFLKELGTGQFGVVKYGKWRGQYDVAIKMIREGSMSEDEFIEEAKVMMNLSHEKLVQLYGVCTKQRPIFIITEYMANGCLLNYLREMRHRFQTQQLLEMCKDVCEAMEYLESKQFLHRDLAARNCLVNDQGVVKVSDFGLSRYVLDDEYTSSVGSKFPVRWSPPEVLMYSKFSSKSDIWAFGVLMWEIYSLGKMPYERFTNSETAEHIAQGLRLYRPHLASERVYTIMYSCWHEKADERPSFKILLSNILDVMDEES
Experimental for Mino cells: The IC50 was calculated using GraphPad Prism software with a four-parameter dose-response curve fit.

Take `CN(Cc1cnc2nc(N)nc(N)c2n1)c1ccc(C(=O)N[C@@H](CCC(=O)O)C(=O)O)cc1` [Methotrexate, methotrexate, reference compound]: the recovery at 16 h, 10 μM in series [1] (Recovery%) was found to be 105%.

In the case of `C[C@]12CC[C@H]3[C@@H](CCC4=CC(=O)CC[C@@]43C)[C@@H]1CC[C@@H]2O` [Testosterone, testosterone, reference compound], the recovery at 16 h, 10 μM was determined as 91.1% in series [1] (Mean, read-out: Recovery%) and 88.7% in series [1] (single replicates, read-out: Recovery%). In addition, the Recovery% in series [1] (single replicates) was 88.88% and 95.84%. For the same molecule, the “-Log Pe” value in series [1] (single replicates, 10 μM, PBS pH 7.4, 25 °C, 16 h, Pe in centimeter per second) was 4.51 and 4.29 and 4.30.

Take `Nc1ncnc2c1c(-c1ccc(Oc3ccccc3)cc1)nn2C1CCN(CCOCCOCC(=O)Nc2ccc3c(c2)C(=O)N(C2CCC(=O)NC2=O)C3=O)CC1` (stereo not shown) [MT-802, reference compound]: the “Mino Cell Viability%” value in the series with Mino cells (1.00E-06 M) is 55.7423% and 49.4302% and 55.3437% and 39.2835% and 54.1265%; in the series with Mino cells (1.60E-09 M), 110.483% and 109.05% and 93.6147% and 92.6129% and 76.2619%; with Mino cells (2.00E-07 M), 89.5862% and 87.1949% and 82.8432% and 61.1711% and 66.0828%; with Mino cells (3.20E-10 M), 84.5559% and 99.9483% and 73.8491% and 92.4729% and 74.9908%; in the series on Mino cells (4.00E-08 M) it was 100.53% and 96.2968% and 92.2144% and 82.8217% and 85.9885%; in the series on Mino cells (5.00E-06 M), 34.2209% and 40.5007% and 48.9347% and 30.3001% and 41.1685%. For the same molecule, the “Mino Cell Viability%” value in the series with Mino cells (8.00E-09 M) was 99.2266% and 99.1512% and 91.8158% and 60.6002% and 61.5373%. Moreover, the negative logarithm of the IC50 (pIC50) (usually the IC50 on a negative log10 scale, so that one unit is a factor of ten) in the series with Mino cells (Homo sapiens, Mino cells, 72 h, Alamar Blue) was 6.00; on BTK-NanoLuc fusion (HEK-293 cells, BTK tracer 1.0 µM, experiment of Fig. 3d, read-out: BTK target engagement IC50), 6.18; in the series with MOLM-14 cells (Homo sapiens, MOLM-14, 72 h, read-out: Cell viability IC50, MOLM-14 cells, 72 h, Alamar Blue), 5.33. Moreover, the “NanoBRET(%)” value at BTK-NanoLuc fusion (1.00E-05 M) is 8.881% and 7.144% and 4.414%; on BTK-NanoLuc fusion (1.60E-08 M), 91.6984% and 97.1324% and 98.4487%; at BTK-NanoLuc fusion (2.00E-06 M), 18.1369% and 17.2809% and 19.5819%; at BTK-NanoLuc fusion (3.20E-09 M) it was 100.618% and 96.0652% and 96.5159%; on BTK-NanoLuc fusion (4.00E-07 M), 66.8491% and 61.8713% and 67.4598%; at BTK-NanoLuc fusion (8.00E-08 M) it was 83.5249% and 103.088% and 96.5333%. In addition, the “MOLM-14 Cell Viability%” value was 30.9193% and 24.2086% and 26.5576% and 19.8014% and 27.7094% in the series on MOLM-14 cells (1.00E-05 M); 94.0978% and 96.8402% and 91.572% and 84.5934% and 78.4642% with MOLM-14 cells (1.60E-08 M); 75.5166% and 72.09% and 75.4424% and 57.762% and 72.8197% with MOLM-14 cells (2.00E-06 M); 96.9942% and 95.4205% and 85.785% and 84.5706% and 80.2089% in the series with MOLM-14 cells (3.20E-09 M); 88.0029% and 82.2386% and 86.6288% and 76.8507% and 80.4769% in the series on MOLM-14 cells (4.00E-07 M); 81.9593% and 80.8361% and 77.1985% and 75.6192% and 75.9328% in the series on MOLM-14 cells (6.40E-10 M). Further, in the series on MOLM-14 cells (8.00E-08 M), the “MOLM-14 Cell Viability%” value is 97.8209% and 89.394% and 93.0772% and 82.672% and 84.7872%. Further, the “Quantification anti-BTK / anti-β-actin (BTK level vs DMSO)” value at BTK [2] (8 nM) is 79.5706 and 82.6481; at BTK [2] (40 nM), 47.7374 and 48.0125; on BTK [2] (200 nM) it was 22.5968 and 20.4165. For the same molecule, the “BTK quantification (anti-BTK / anti-β-actin)” value on BTK [3] (8 nM) is 79.5706 and 82.6481; at BTK [3] (40 nM), 47.7374 and 48.0125; on BTK [3] (200 nM), 22.5968 and 20.4165.
